# Measured values from US8703483B2, “Reagents and methods for using human embryonic stem cells to evaluate toxicity of pharmaceutical compounds and other chemicals” (Wisconsin Alumni Research Foundation, priority 2006, dated 2014).
# Tested on: human embryonic stem cells
# Experiment: Metabolite profiling (LC/ESI-TOF mass spectrometry) of extracellular media of hESCs treated with alcohol
# Format: cell-based
# Conditions: ETOH 0.3
# Description: Binned masses were annotated in silico by querying the neutral masses in several different databases. These databases included Metlin, Biological Magnetic Resonance Data Bank (BMRB), NIST Chemistry WebBook, and the Human Metabolome Database. A mass was considered identified when its neutral mass was within 10 ppm of a known compound annotated in one of the databases listed above.
compound,measurement,setting,value
CCO [ETOH],"Fold: Unknown, mass 268.2487, RT 42.3656",4 D,−1.517 fold
same,"Fold: Unknown, mass 284.9798, RT 5.69776",4 D,−1.2223 fold
same,"Fold: Unknown, mass 286.1519, RT 14.88092",4 D,−1.862 fold
same,"Fold: Unknown, mass 293.1952, RT 66.86661",4 D,−2.154 fold
same,"Fold: Unknown, mass 293.9773, RT 4.014175",4 D,−2.267 fold
same,"Fold: Unknown, mass 294.1535, RT 20.67831",4 D,−1.422 fold
same,"Fold: Unknown, mass 295.1521, RT 8.967061",4 D,1.467 fold
same,"Fold: Unknown, mass 301.1345, RT 7.719471",4 D,2.678 fold
same,"Fold: Unknown, mass 315.6732, RT 26.51229",4 D,−2.865 fold
same,"Fold: Unknown, mass 322.1166, RT 23.90107",4 D,−2.4215 fold
same,"Fold: Unknown, mass 332.1367, RT 20.72194",4 D,−2.077 fold
same,"Fold: Unknown, mass 340.9252, RT 5.033976",4 D,2.625 fold
same,"Fold: Unknown, mass 353.2765, RT 3.85935",4 D,4.904 fold
same,"Fold: Unknown, mass 365.1606, RT 20.16372",4 D,−1.925 fold
same,"Fold: Unknown, mass 375.1886, RT 26.07722",4 D,−4.751 fold
same,"Fold: Unknown, mass 375.1898, RT 11.47109",4 D,2.132 fold
same,"Fold: Unknown, mass 383.1721, RT 15.20829",4 D,3.377 fold
same,"Fold: Unknown, mass 387.0812, RT 19.97914",4 D,−1.699 fold
same,"Fold: Unknown, mass 388.2349, RT 46.346",4 D,−1.532 fold
same,"Fold: Unknown, mass 393.1886, RT 19.69092",4 D,−2.059 fold
same,"Fold: Unknown, mass 396.1687, RT 6.259963",4 D,2.422 fold
same,"Fold: Unknown, mass 403.1984, RT 17.27421",4 D,−2.303 fold
same,"Fold: Unknown, mass 417.2338, RT 33.09057",4 D,−1.78 fold
same,"Fold: Unknown, mass 417.2386, RT 21.14975",4 D,−1.573 fold
same,"Fold: Unknown, mass 420.0513, RT 13.35295",4 D,−1.902 fold
same,"Fold: Unknown, mass 421.2201, RT 27.46219",4 D,−2.273 fold
same,"Fold: Unknown, mass 429.2533, RT 18.03482",4 D,−2.201 fold
same,"Fold: Unknown, mass 443.2339, RT 30.87201",4 D,2.171 fold
same,"Fold: Unknown, mass 443.3216, RT 67.0705",4 D,1.688 fold
same,"Fold, Unknown metabolite, Mass 994.0917","4 D, retention time 3.646902",1.605
same,"Fold, Unknown metabolite, Mass 980.075","4 D, retention time 3.680188",1.481
same,"Fold, Unknown metabolite, Mass 1008.072","4 D, retention time 3.705141",1.416
same,"Fold, Unknown metabolite, Mass 820.8181","4 D, retention time 4.613879",−1.571
same,"Fold, Unknown metabolite, Mass 611.8727","4 D, retention time 4.936704",2.01
same,"Fold, Unknown metabolite, Mass 1038.786","4 D, retention time 5.177162",1.588
same,"Fold, Unknown metabolite, Mass 921.0025","4 D, retention time 5.399211",1.945
same,"Fold, Unknown metabolite, Mass 555.8505","4 D, retention time 5.742094",−1.3396
same,"Fold, Unknown metabolite, Mass 1040.323","4 D, retention time 5.8905",−1.479
same,"Fold, Unknown metabolite, Mass 509.6704","4 D, retention time 5.891069",1.468
same,"Fold, metabolite Ethanesulfonic acid, Mass 579.2519","4 D, retention time 5.903169",−2.112
same,"Fold, Unknown metabolite, Mass 646.7084","4 D, retention time 5.903429",2.946
same,"Fold, Unknown metabolite, Mass 732.007","4 D, retention time 5.918027",1.761
same,"Fold, Unknown metabolite, Mass 658.2544","4 D, retention time 8.787827",−3.21
same,"Fold, Unknown metabolite, Mass 502.2258","4 D, retention time 13.78553",1.866
same,"Fold, Unknown metabolite, Mass 566.2265","4 D, retention time 14.9927",1.624
same,"Fold, Unknown metabolite, Mass 555.2406","4 D, retention time 15.78741",2.471
same,"Fold, Unknown metabolite, Mass 577.2825","4 D, retention time 16.90923",−8.917
same,"Fold, Unknown metabolite, Mass 505.2616","4 D, retention time 18.36887",2.009
same,"Fold, Unknown metabolite, Mass 489.2127","4 D, retention time 21.72729",2.372
same,"Fold, Unknown metabolite, Mass 462.2217","4 D, retention time 22.95657",1.936
same,"Fold, metabolite L-Oleandrosyl-oleandolide, Mass 530.314","4 D, retention time 23.87065",2.212
same,"Fold, Unknown metabolite, Mass 574.3397","4 D, retention time 24.7039",1.524
same,"Fold, metabolite L-Urobilinogen, Mass 596.3543","4 D, retention time 25.14927",1.545
same,"Fold, Unknown metabolite, Mass 661.3846","4 D, retention time 26.7452",1.547
same,"Fold, Unknown metabolite, Mass 447.2509","4 D, retention time 29.86415",−1.858
same,"Fold, Unknown metabolite, Mass 478.2761","4 D, retention time 30.28867",1.51
same,"Fold, metabolite glucuronide, Mass 471.1928","4 D, retention time 30.37291",2.726
same,"Fold, Unknown metabolite, Mass 449.2653","4 D, retention time 30.45343",−2.414
same,"Fold, Unknown metabolite, Mass 471.7804","4 D, retention time 30.72707",−3.441
same,"Fold, Unknown metabolite, Mass 510.8202","4 D, retention time 31.22083",2.502
same,"Fold, Unknown metabolite, Mass 559.8329","4 D, retention time 31.97996",−2.566
same,"Fold, Unknown metabolite, Mass 635.4065","4 D, retention time 32.08734",1.395
same,"Fold, Unknown metabolite, Mass 531.2876","4 D, retention time 32.50661",2.361
same,"Fold, Unknown metabolite, Mass 603.3535","4 D, retention time 32.67372",−2.94
same,"Fold, Unknown metabolite, Mass 460.9391","4 D, retention time 33.51823",−3.602
same,"Fold, Unknown metabolite, Mass 619.3409","4 D, retention time 33.68866",2.126
same,"Fold, Unknown metabolite, Mass 796.9917","4 D, retention time 34.60124",1.689
same,"Fold, Unknown metabolite, Mass 751.4193","4 D, retention time 35.028",1.845
same,"Fold, Unknown metabolite, Mass 531.3191","4 D, retention time 35.58454",−3.0409
same,"Fold, metabolite Neu5Acalpha2-3Galbeta1-4Glcbeta-Sp, Mass 702.2497","4 D, retention time 40.84822",−2.216
same,"Fold, Unknown metabolite, Mass 518.3914","4 D, retention time 46.57666",2.289
same,"Fold, Unknown metabolite, Mass 731.0954","4 D, retention time 47.76987",−3.25
same,"Fold, Unknown metabolite, Mass 576.096","4 D, retention time 47.90467",1.558
same,"Fold, Unknown metabolite, Mass 444.2237","4 D, retention time 51.58546",2.03
same,"Fold, Unknown metabolite, Mass 468.2002","4 D, retention time 51.6158",1.92
same,"Fold, Unknown metabolite, Mass 526.2773","4 D, retention time 51.73057",2.715
same,"Fold, Unknown metabolite, Mass 446.0431","4 D, retention time 54.8719",1.934
same,"Fold, Unknown metabolite, Mass 531.3736","4 D, retention time 66.31491",2.874
same,"Fold, Unknown metabolite, Mass 487.3472","4 D, retention time 66.73744",2.878
same,"Fold, Unknown metabolite, Mass 528.3631","4 D, retention time 71.36012",2.361
same,"Fold, Unknown metabolite, Mass 556.3971","4 D, retention time 88.02533",−2.384
same,"Fold: 1,3-Dimethyl-8-isoquinolinol, mass 173.084, RT 20.23014",24 H,−1.44 fold
same,"Fold: 3,4-Dihydroxybutyric acid, mass 129.0452, RT 16.73904",24 H,1.796 fold
same,"Fold: 3-Methoxytyramine / Phenylephrine, mass 167.0941, RT 23.6763",24 H,−2.83 fold
